Results published in BigSolDB 2.1.

## OC[C@H]1O[C@@H](c2ccc(Cl)c(Cc3ccc(O[C@H]4CCOC4)cc3)c2)[C@H](O)[C@@H](O)[C@@H]1O
In DMF, 278.15 K
  solubility (mole fraction): 0.00117
In DMF, 283.15 K
  solubility (mole fraction): 0.00124
In DMF, 288.15 K
  solubility (mole fraction): 0.00129
In DMF, 293.15 K
  solubility (mole fraction): 0.00134
In DMF, 298.15 K
  solubility (mole fraction): 0.00142
In DMF, 303.15 K
  solubility (mole fraction): 0.00149
In DMF, 308.15 K
  solubility (mole fraction): 0.00158
In DMF, 313.15 K
  solubility (mole fraction): 0.00165
In DMF, 318.15 K
  solubility (mole fraction): 0.00171
In acetonitrile, 278.15 K
  solubility (mole fraction): 6.19e-07
In acetonitrile, 283.15 K
  solubility (mole fraction): 9.85e-07
In acetonitrile, 288.15 K
  solubility (mole fraction): 1.46e-06
In acetonitrile, 293.15 K
  solubility (mole fraction): 1.97e-06
In acetonitrile, 298.15 K
  solubility (mole fraction): 2.62e-06
In acetonitrile, 303.15 K
  solubility (mole fraction): 3.52e-06
In acetonitrile, 308.15 K
  solubility (mole fraction): 4.87e-06
In acetonitrile, 313.15 K
  solubility (mole fraction): 6.15e-06
In acetonitrile, 318.15 K
  solubility (mole fraction): 8.16e-06
In ethanol, 278.15 K
  solubility (mole fraction): 2.33e-06
In ethanol, 283.15 K
  solubility (mole fraction): 3.77e-06
In ethanol, 288.15 K
  solubility (mole fraction): 4.84e-06
In ethanol, 293.15 K
  solubility (mole fraction): 6.6e-06
In ethanol, 298.15 K
  solubility (mole fraction): 8.45e-06
In ethanol, 303.15 K
  solubility (mole fraction): 1.1e-05
In ethanol, 308.15 K
  solubility (mole fraction): 1.4e-05
In ethanol, 313.15 K
  solubility (mole fraction): 1.85e-05
In ethanol, 318.15 K
  solubility (mole fraction): 2.43e-05
In ethyl acetate, 278.15 K
  solubility (mole fraction): 7.16e-07
In ethyl acetate, 283.15 K
  solubility (mole fraction): 1.07e-06
In ethyl acetate, 288.15 K
  solubility (mole fraction): 1.42e-06
In ethyl acetate, 293.15 K
  solubility (mole fraction): 1.97e-06
In ethyl acetate, 298.15 K
  solubility (mole fraction): 2.56e-06
In ethyl acetate, 303.15 K
  solubility (mole fraction): 3.12e-06
In ethyl acetate, 308.15 K
  solubility (mole fraction): 4.27e-06
In ethyl acetate, 313.15 K
  solubility (mole fraction): 5.56e-06
In ethyl acetate, 318.15 K
  solubility (mole fraction): 6.89e-06
In ethylene glycol, 278.15 K
  solubility (mole fraction): 1.16e-05
In ethylene glycol, 283.15 K
  solubility (mole fraction): 1.48e-05
In ethylene glycol, 288.15 K
  solubility (mole fraction): 1.91e-05
In ethylene glycol, 293.15 K
  solubility (mole fraction): 2.43e-05
In ethylene glycol, 298.15 K
  solubility (mole fraction): 3.41e-05
In ethylene glycol, 303.15 K
  solubility (mole fraction): 4.21e-05
In ethylene glycol, 308.15 K
  solubility (mole fraction): 5.91e-05
In ethylene glycol, 313.15 K
  solubility (mole fraction): 7.01e-05
In ethylene glycol, 318.15 K
  solubility (mole fraction): 8.59e-05
In formamide, 278.15 K
  solubility (mole fraction): 8.05e-05
In formamide, 283.15 K
  solubility (mole fraction): 9.2e-05
In formamide, 288.15 K
  solubility (mole fraction): 0.000108
In formamide, 293.15 K
  solubility (mole fraction): 0.000122
In formamide, 298.15 K
  solubility (mole fraction): 0.000143
In formamide, 303.15 K
  solubility (mole fraction): 0.000174
In formamide, 308.15 K
  solubility (mole fraction): 0.000202
In formamide, 313.15 K
  solubility (mole fraction): 0.000248
In formamide, 318.15 K
  solubility (mole fraction): 0.000303
In methanol, 278.15 K
  solubility (mole fraction): 1.77e-05
In methanol, 283.15 K
  solubility (mole fraction): 2.48e-05
In methanol, 288.15 K
  solubility (mole fraction): 3e-05
In methanol, 293.15 K
  solubility (mole fraction): 3.65e-05
In methanol, 298.15 K
  solubility (mole fraction): 4.46e-05
In methanol, 303.15 K
  solubility (mole fraction): 5.54e-05
In methanol, 308.15 K
  solubility (mole fraction): 6.9e-05
In methanol, 313.15 K
  solubility (mole fraction): 8.53e-05
In methanol, 318.15 K
  solubility (mole fraction): 0.00011
In n-butanol, 278.15 K
  solubility (mole fraction): 1.81e-06
In n-butanol, 283.15 K
  solubility (mole fraction): 2.73e-06
In n-butanol, 288.15 K
  solubility (mole fraction): 4.04e-06
In n-butanol, 293.15 K
  solubility (mole fraction): 5.9e-06
In n-butanol, 298.15 K
  solubility (mole fraction): 8.49e-06
In n-butanol, 303.15 K
  solubility (mole fraction): 1.2e-05
In n-butanol, 308.15 K
  solubility (mole fraction): 1.62e-05
In n-butanol, 313.15 K
  solubility (mole fraction): 2.21e-05
In n-butanol, 318.15 K
  solubility (mole fraction): 3.02e-05
In n-propanol, 278.15 K
  solubility (mole fraction): 1.59e-06
In n-propanol, 283.15 K
  solubility (mole fraction): 2.43e-06
In n-propanol, 288.15 K
  solubility (mole fraction): 3.39e-06
In n-propanol, 293.15 K
  solubility (mole fraction): 4.54e-06
In n-propanol, 298.15 K
  solubility (mole fraction): 6.09e-06
In n-propanol, 303.15 K
  solubility (mole fraction): 7.88e-06
In n-propanol, 308.15 K
  solubility (mole fraction): 1.04e-05
In n-propanol, 313.15 K
  solubility (mole fraction): 1.43e-05
In n-propanol, 318.15 K
  solubility (mole fraction): 1.99e-05
